Assay results reported in US12011452B2, “Compositions and methods for treatment of mitochondrial respiratory chain dysfunction and other mitochondrial disorders” (The Children's Hospital of Philadelphia, priority 2018, dated 2024).
Counter-ions that a name gives are not always drawn. Like-named read-outs stand apart in the source and are kept apart here.

Key:
[1] = test system: N2; assay: GSH levels in worms by HPLC-ECD after GSH depleting agent; format: in vivo, C. elegans; conditions: treated for 24 hours
Procedure: FIG. 28. Effect of the GSH Depleting agent, Diethyl Maleate (DEM). Worms were treated with DEM for 24 hours.
GSH levels are an important parameter to evaluate the physiological effects of mitochondrial disease. In the present example, the development and optimization of an HPLC-ECD assay to sensitively quantify reduced (GSH) and oxidized (GSSG) glutathione levels in C. elegans is described. We have optimized each of the following: mobile phase buffer composition, homogenization conditions, deproteinizing conditions and reducing agents.

[2] = test system: gas-1(fc21) C. elegans; assay: Lifespan of gas-1(fc21) Complex I NDUFS2 mutant worms; format: in vivo; conditions: administered at development (L1); previous studies in applicant's lab
[3] = test system: NUBPL^−/− C. elegans; assay: Lifespan of NUBPL-/- C. elegans model of Complex I disease; format: in vivo; conditions: Glu 10 mM, NAC 2.5 mM, DCA 25 mM, single biological replicate
From the text: We obtained a genetic knockout NUBPL (34.7% homology) worm strain TM3754 from the National BioResource Project, which has a 478 base pair deletion. […] The mutation in this strain is currently not balanced, so to balance it and obtain a homozygous mutant strain we have outcrossed it with FX30168 tm18[dpy-5(tmIs1236)]).
These animal models can be used to advantage for identifying new agents useful for the treatment of mitochondrial and other respiratory chain disorders. […] NUBPL is a nuclear gene-encoded complex I assembly factor, in which autosomal recessive (biallelic) mutations cause severe human mitochondrial disease manifesting with cerebellar ataxia and Leigh syndrome.

[4] = cited from earlier work
[5] = test system: gas-1(fc21) worms; assay: Mitochondrial physiology (TMRE, MitoSOX, MitoTracker Green) in gas-1(fc21) worms; format: in vivo, C. elegans; conditions: 24 hour treatment
Procedure: Mitochondrial oxidant burden (MitoSOX Red), membrane potential (tetramethylrhodamine ethyl ester, TMRE), and mitochondrial content (MitoTracker Green FM, MTG) were performed in C. elegans at 20° C. using in vivo terminal pharyngeal bulb relative fluorescence microscopic quantitation. […] Simultaneously with the drug treatments, worms were treated with either 10 μM MitoSOX Red (matrix oxidant burden), 100 nM TMRE (mitochondrial membrane potential), or 2 μM MitoTracker Green FM (mitochondria content) for 24 h. The next day, worms were transferred with a pick onto 35 mm agar plates spread with OP50 E. coli without dye for 1 h to allow clearing of residual dye from the gut. Worms were then paralyzed in situ with 5 mg/ml levamisole. Photographs were taken in a darkened room at 160× magnification with a Cool Snap cf2 camera (Nikon, Melville, N.Y.). A CY3 fluorescence cube set (MZFLIII, Leica, Bannockburn, IL) was used for MitoSOX and TMRE. […] Fluorescence data for each strain were normalized to its same day control to account for day-to-day variation. […] The significance of the difference in the mean fluorescence intensity between strains under different experimental conditions was assessed by mixed-effect ANOVA, which analyzes potential batch effect due to samples being experimentally prepared, processed, and analyzed on different days by including a batch random effect in the model. […]

[6] = test system: hsp-6p::GFP; assay: Mitochondrial stress (UPRmt) hsp-6p::GFP induction in dld-1 RNAi worms; format: in vivo, C. elegans; conditions: dld-1 RNAi worms; conc.: Nicotinic Acid 1 mM; Riboflavin 10 uM; Thiamine 25 mM; L-Carnitine 100 uM; Folinic Acid 10 uM; Glucose 10 uM; DCA 25 mM; Cysteamine 100 um; NAC 2.5 Mm; AICAR 500 uM; Hydralazine 200 uM; Lithium Chloride 10 mM; Cyclohexamide 2 uM; Arginine 10 mM; Taurine 800 uM; Resveratrol 50 uM; Rapamycin 2.5 nM; Probucol 5 uM; Lipoic Acid 10 uM; Vitamin E 250 uM
Procedure: (§1) Brood size analysis—Worms were synchronized by picking ten to fifteen N2 gravid adult worms onto NGM plates containing 0.2 mM IPTG, ampicillin and tetracycline spread with DLD-1 (LLCI.3) or L4440 bacteria and allowed to lay eggs for 2-2.5 hours. A single L4 larvae from the egg lay was placed on a 4 mm dish containing NGM and corresponding RNAi clone and allowed to lay eggs for 24 hours before being transferred to a fresh 4 mm NGM plate. Worms were transferred to fresh plates for 5 days and progeny were counted from each plate. Western blot analysis—Approximately 500 young adult worms were briefly washed with S. basal media before resuspension in 250 uL of RIPA buffer (50 mM Tris HCl, pH 8.0, 150 mM NaCl, 1.0% NP-40, 0.5% sodium deoxycholate, 1.0 mM EDTA, 0.1% SDS) containing a 1/100 dilution of Protease inhibitor cocktail (Sigma). Worms were lysed using a mechanical hand homogenizer and pestle on ice and the resulting lysate was maintained at constant agitation for 30 minutes at 4° C. Lysate was subsequently centrifuged for 20 minutes at 16,000 rpm and the supernatant was removed. Protein concentration was determined using the Pierce BCA protein assay kit. 30 ug of whole cell lysate was utilized and blots were probed with anti-LAD monoclonal antibody at a 1:7500 dilution (abcam) to detect the DLD-1 protein. As a loading control blots were additionally probed with anti-Beta tubulin (source) at a […]. Chemotaxis Assay—Chemotaxis analysis was performed as has been previously described (Haroon, S. J. of Cell Reports (2018); pmid:29562168). In brief, approximately 30 worms were collected and washed with S. basal media. Worms were placed 5 cm away from a spot containing 2 uL of 10% isoamyl alcohol dissolved in 100% ethanol and 1 uL of 10% sodium azide. After one hour distance traveled by each worm was marked and analyzed via image J. Length Analysis—A synchronized population of worms grown on L4440 and LLCI.3 RNAi clones were monitored from the L4 stage of development till day 5 of adulthood. On the day of length analysis […] Quantification of Hsp6::GFP induction—A synchronized egg lay using 15-20 Hsp6::GFP gravid young adult worms on L4440 or LLCI.3 RNAi clones was performed to induce depletion of DLD-1 protein. Day 1 young adult worms were washed once in 4-5 mL of S. basal in a 50 mL conical tube and pelleted by centrifugation at 1300×g for 1 minute. Spent S. basal was removed and worms were resuspended in a final volume of 10 mL in preparation for biosorter analysis. An excitation wavelength of 488 nm and emission filter of 510 nm was utilized to measure induction of Hsp6::GFP induction in individual worms. Experiments were conducted with approximately 300 worms per sample with three biological replicates for each condition tested.
(§2) DLD depletion in C. elegans was achieved by feeding wild-type (N2 Bristol) worms E. coli expressing a dsRNA targeting DLD-1 messenger RNA. Brood size, survival, activity, growth (length), DLD-1 expression, and mitochondrial unfolded protein response (UPR^mt) were quantified in the resulting DLD-1^−/− animals. High throughput semi-automated analyses of animal growth (length) and mitochondrial stress response (UPR^mt) were also measured in day 1 adult worm populations using the COPAS Biosorter (Union Biometrica).
(§3) Therapeutic impact on DLD-1^−/− C. elegans UPR^mt induction and growth (length), as well as DLDH−/− zebrafish survival, liver morphology, and swimming behavior were tested for 5 therapies, including a PDH activator (dichloroacetate, DCA), PDH cofactors (thiamine, riboflavin, lipoic acid), and a lipid lowering drug that functions as a signaling modifier to inhibit mTORCI and activate AMPK and PPAR (probucol).

[7] = test system: DLD-1 deficient (did-1 RNAi) C. elegans; assay: Animal size (length) of DLD-1 deficient (dld-1 RNAi) worms, COPAS Biosorter; format: in vivo; conditions: dld-1 RNAi worms; conc.: Nicotinic Acid 1 mM; Riboflavin 10 uM; Thiamine 25 mM; L-Carnitine 100 uM; Folinic Acid 10 uM; Glucose 10 uM; DCA 25 mM; Cysteamine 100 um; NAC 2.5 Mm; AICAR 500 uM; Hydralazine 200 uM; Lithium Chloride 10 mM; Cyclohexamide 2 uM; Arginine 10 mM; Taurine 800 uM; Resveratrol 50 uM; Rapamycin 2.5 nM; Probucol 5 uM; Lipoic Acid 10 uM; Vitamin E 250 uM
Procedure: RNAi feeding—DLD-1 RNAi clone (LLC1.3) was obtained from the Ahringer RNAi collection and was sequence confirmed prior to use. The vector L4440 was utilized as a control.
as §1, §2, §3

[8] = test system: SURF1-del1−/− zebrafish; assay: SURF1 knockout zebrafish pre-treatment before NaN3 exposure: brain death, startle response; format: in vivo
From the text: The phenotypes assessed can include without limitation, swimming activity or swimming fatigue, organ structural impairment or dysfunction gray brain alterations in mitochondrial physiology (=brain death) (FIG. 36C), heart rate, startle (tap) response (stimulus on plate), and touch response (stimulus on animal).

[9] = test system: rotenone treated zebrafish; assay: Rotenone model of brain death in zebrafish; conditions: in vivo
Procedure: FIG. 36B) Wild-type (AB) fish are pre-exposed to drug treatments in their water from 5 days post fertilization (dpf) to 7 dpf. On 7 dpf, Zebrafish are co-treated with 150 nM of Rotenone (complex I inhibitor) and the same drug treatment(s). Zebrafish are then placed on the automated Zebrabox (Viewpoint) for 20 minutes of light at 60% followed by 20 minutes of darkness (eg, light at 0%) to induce a neurobehavioral startle response. The activity from the startle response is binned to 5 minute, and shown here as average activity at 581 minutes post-rotenone exposure. Activity score is normalized using percent of control (POC) to wild-type AB fish. […] Error bars convey standard error of mean. *, p<0.05; **, p<0.01; ***, p<0.001 by Student's T test. Glu, 10 mM glucose. […] NAC, 2.5 mM N-acetylcysteine. […] FIG. 36D+36E.

[10] = test system: hsp-6p::GFP; assay: UPRmt in K09A9.5 (gas-1) knockdown hsp-6p::gfp reporter worms; format: in vivo, C. elegans; conditions: 10 mM Glu, 2.5 mM NAC, 1 mM Nicotinic acid
Procedure: UPRmt in C. elegans is assessed using a GFP reporter for hsp-6.

[11] = cited from earlier work; remark: listed apart in the source
[12] = pre-treated from 5 dpf, 45 μM NaN3 from 6 dpf, assessed 7 dpf

| Structure (SMILES) | GSH levels [1] | rescue of short lifespan of gas-1(fc21) to wild type N2 levels by individual compounds [2] | median lifespan of NUBPL−/− worms [3] | median lifespan of NUBPL−/− worms ([3]; listed as N-acetylcysteine) | half-life ([4]; adults) [h] | metabolism ([4]; in vivo) | urine excretion ([4]; in vivo) | half-life ([4]; neonates) [h] | effect on reduced mitochondrial membrane potential [5] | HSP-6P::GFP [6] | Size [7] | effect on sodium azide treated (stressor) brains of surf1 KO zebrafish ([8]; FIG. 36D) | decompensation from acute low-dose CIV inhibition ([8]; SURF1−/− animals) | brain death from NaN3 exposure [8, 12] | neuromuscular dysfunction (startle response) from NaN3 exposure [8, 12] | effect on rotenone treated (stressor) brains of zebrafish [9] | UPRmt stress response (hsp-6p::gfp fluorescence) [10] | solubility in chloroform and ether [11] | solubility in water and alcohol [11] |
| --- | --- | --- | --- | --- | --- | --- | --- | --- | --- | --- | --- | --- | --- | --- | --- | --- | --- | --- | --- |
| CCOC(=O)/C=C\C(=O)OCC [DEM, Diethyl Maleate] | dose-dependently reduced | – | – | – | – | – | – | – | – | – | – | – | – | – | – | – | – | – | – |
| CC(=O)N[C@@H](CS)C(=O)O [NAC, N-acetylcysteine] | – | partially or fully rescue | significantly rescued | improve | 5.6 | extensively liver metabolized | 22-30% | 11 | significantly increases | No Effect | No Effect | protective effects | preventing | prevented | prevented | Protective effects | significantly reduce | practically insoluble | soluble |
